Article PMC8799717, “Pharmacological targeting PIKfyve and tubulin as an effective treatment strategy for double-hit lymphoma” (Cell Death Discovery, 2022)

Columns and labels:
Assay in all cases: biochemical
Parameters in all cases: KINOMEscan active-site-directed competition binding panel, 468 kinases, percent of DMSO control at 1 uM
Settings in all cases: KINOMEscan binding, percent of DMSO control; read-out: Ctrl%
[1] = molecular target: T1, ABL1(H396P)-nonphosphorylated (Homo sapiens, UniProt P00519, H396P)
T1 construct: nonphosphorylated

[2] = molecular target: ABL2 (Homo sapiens, UniProt P42684)
[3] = molecular target: ACVR1B (Homo sapiens, UniProt P36896)
[4] = molecular target: BRAF (Homo sapiens, UniProt P15056)
[5] = molecular target: CAMK4 (Homo sapiens, UniProt Q16566)
[6] = molecular target: CDKL1 (Homo sapiens, UniProt Q00532)
[7] = molecular target: CSNK1D (Homo sapiens, UniProt P48730)
[8] = molecular target: EGFR(L858R,T790M) (Homo sapiens, UniProt P00533, L858R/T790M)
[9] = molecular target: ERBB4 (Homo sapiens, UniProt Q15303)
[10] = molecular target: T2, ERK1 (Homo sapiens, UniProt P27361)
T2 construct: gene MAPK3

[11] = molecular target: T3, ERK3 (Homo sapiens, UniProt Q16659)
T3 construct: gene MAPK6

[12] = molecular target: HIPK3 (Homo sapiens, UniProt Q9H422)
[13] = molecular target: IGF1R (Homo sapiens, UniProt P08069)
[14] = molecular target: T4, MEK2 (Homo sapiens, UniProt P36507)
T4 construct: gene MAP2K2

[15] = molecular target: PIK3CA (Homo sapiens, UniProt P42336)
[16] = molecular target: PRKCE (Homo sapiens, UniProt Q02156)
[17] = molecular target: RIOK1 (Homo sapiens, UniProt Q9BRS2)
[18] = molecular target: T5, SGK (Homo sapiens, UniProt O00141)
T5 construct: gene SGK1

[19] = molecular target: SGK2 (Homo sapiens, UniProt Q9HBY8)
[20] = molecular target: TSSK1B (Homo sapiens, UniProt Q9BXA7)
[21] = molecular target: ULK2 (Homo sapiens, UniProt Q8IYT8)
[22] = molecular target: WEE2 (Homo sapiens, UniProt P0C1S8)
[23] = molecular target: T6, YSK1 (Homo sapiens, UniProt O00506)
T6 construct: gene STK25

[24] = molecular target: T7, ZAK (Homo sapiens, UniProt Q9NYL2)
T7 construct: gene MAP3K20

SGK2, sequence (Q9HBY8 whole entry): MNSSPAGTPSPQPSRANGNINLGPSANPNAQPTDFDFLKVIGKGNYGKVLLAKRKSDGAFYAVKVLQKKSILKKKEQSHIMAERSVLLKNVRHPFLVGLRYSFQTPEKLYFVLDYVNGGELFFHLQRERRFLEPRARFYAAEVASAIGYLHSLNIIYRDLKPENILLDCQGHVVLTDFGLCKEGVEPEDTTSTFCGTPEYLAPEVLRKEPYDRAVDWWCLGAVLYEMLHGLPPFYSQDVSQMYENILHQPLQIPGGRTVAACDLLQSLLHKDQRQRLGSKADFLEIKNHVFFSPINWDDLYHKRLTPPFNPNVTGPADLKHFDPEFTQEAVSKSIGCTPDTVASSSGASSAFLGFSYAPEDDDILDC
BRAF, sequence (P15056 whole entry): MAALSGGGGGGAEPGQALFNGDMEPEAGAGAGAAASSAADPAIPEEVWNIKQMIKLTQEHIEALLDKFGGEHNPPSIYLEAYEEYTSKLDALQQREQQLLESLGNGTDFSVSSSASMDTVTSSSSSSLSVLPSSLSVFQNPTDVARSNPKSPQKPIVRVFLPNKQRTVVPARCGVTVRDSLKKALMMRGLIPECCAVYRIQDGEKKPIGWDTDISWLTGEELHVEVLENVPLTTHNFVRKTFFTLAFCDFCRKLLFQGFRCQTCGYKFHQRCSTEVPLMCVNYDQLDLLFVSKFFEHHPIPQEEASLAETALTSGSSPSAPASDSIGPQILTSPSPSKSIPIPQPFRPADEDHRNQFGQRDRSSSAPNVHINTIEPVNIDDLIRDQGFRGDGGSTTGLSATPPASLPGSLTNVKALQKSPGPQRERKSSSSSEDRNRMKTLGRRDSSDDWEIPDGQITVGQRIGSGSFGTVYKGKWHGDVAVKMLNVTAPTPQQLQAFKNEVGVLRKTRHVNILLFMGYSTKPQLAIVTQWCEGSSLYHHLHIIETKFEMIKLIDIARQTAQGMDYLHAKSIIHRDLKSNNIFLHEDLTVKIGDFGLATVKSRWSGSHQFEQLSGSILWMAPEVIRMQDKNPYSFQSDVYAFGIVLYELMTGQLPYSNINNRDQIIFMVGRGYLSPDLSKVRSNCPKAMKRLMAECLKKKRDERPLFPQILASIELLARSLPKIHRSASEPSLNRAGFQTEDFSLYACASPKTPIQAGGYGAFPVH
ABL2, sequence (P42684 whole entry): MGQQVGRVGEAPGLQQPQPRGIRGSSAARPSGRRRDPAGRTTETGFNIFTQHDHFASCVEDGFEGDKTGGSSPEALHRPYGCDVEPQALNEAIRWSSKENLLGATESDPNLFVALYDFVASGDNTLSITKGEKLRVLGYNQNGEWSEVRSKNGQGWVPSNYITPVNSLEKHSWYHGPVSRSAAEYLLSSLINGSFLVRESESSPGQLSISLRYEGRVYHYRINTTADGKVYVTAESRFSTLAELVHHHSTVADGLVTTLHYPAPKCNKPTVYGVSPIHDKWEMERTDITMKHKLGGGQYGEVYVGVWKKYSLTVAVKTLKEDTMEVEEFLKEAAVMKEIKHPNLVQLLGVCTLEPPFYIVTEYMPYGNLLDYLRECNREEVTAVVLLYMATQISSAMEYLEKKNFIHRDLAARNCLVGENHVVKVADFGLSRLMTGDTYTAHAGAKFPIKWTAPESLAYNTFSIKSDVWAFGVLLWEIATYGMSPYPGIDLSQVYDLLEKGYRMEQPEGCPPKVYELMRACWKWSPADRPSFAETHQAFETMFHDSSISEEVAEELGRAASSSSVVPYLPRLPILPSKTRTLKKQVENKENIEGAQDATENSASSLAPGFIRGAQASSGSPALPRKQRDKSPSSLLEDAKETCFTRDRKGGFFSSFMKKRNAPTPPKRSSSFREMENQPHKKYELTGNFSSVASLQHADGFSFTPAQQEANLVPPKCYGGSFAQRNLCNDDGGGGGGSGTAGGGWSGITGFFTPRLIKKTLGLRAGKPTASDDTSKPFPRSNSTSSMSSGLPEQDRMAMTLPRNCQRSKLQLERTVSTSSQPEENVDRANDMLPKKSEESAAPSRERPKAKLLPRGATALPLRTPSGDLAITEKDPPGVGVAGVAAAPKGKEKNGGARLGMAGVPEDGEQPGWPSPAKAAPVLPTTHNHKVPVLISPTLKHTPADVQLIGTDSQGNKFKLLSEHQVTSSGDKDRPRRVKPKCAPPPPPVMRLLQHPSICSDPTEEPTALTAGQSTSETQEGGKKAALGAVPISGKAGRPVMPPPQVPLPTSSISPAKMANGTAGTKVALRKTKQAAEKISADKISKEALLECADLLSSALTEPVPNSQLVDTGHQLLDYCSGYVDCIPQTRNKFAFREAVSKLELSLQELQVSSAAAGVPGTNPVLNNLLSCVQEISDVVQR
T4 sequence (P36507 whole entry): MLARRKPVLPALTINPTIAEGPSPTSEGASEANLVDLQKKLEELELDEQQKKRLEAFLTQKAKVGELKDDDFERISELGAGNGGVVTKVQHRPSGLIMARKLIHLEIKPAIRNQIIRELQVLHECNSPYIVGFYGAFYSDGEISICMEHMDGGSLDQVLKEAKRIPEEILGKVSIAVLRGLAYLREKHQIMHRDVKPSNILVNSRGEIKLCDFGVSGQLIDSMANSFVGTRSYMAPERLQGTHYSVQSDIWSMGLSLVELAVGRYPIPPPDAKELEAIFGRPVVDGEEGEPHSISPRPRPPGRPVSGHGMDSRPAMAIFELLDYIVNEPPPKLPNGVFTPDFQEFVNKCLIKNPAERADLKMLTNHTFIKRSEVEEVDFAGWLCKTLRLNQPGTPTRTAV
T2 sequence (P27361 whole entry): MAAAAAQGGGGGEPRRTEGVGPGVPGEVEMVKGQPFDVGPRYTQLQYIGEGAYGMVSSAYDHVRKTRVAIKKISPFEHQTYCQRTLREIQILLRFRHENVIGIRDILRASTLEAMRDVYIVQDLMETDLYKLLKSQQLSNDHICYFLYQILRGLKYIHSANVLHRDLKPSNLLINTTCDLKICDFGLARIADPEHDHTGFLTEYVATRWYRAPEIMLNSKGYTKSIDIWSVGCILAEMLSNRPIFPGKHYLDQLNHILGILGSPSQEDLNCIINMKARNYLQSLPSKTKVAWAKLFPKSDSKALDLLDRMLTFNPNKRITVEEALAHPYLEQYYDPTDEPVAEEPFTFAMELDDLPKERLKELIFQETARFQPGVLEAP
ACVR1B, sequence (P36896 whole entry): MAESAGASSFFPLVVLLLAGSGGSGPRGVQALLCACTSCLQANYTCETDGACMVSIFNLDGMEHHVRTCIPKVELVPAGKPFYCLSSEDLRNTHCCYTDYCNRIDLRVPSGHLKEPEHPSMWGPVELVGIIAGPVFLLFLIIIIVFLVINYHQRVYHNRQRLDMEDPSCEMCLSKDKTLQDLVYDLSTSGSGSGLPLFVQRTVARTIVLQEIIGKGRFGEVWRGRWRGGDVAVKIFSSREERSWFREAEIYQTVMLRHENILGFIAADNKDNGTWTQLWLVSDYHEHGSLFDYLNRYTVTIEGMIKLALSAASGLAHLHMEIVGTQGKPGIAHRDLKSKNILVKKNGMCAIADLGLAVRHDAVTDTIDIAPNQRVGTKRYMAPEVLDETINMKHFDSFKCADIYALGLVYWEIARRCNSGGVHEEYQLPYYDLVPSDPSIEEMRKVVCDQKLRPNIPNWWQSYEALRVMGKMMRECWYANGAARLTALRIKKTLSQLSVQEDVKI
PIK3CA, sequence (P42336 whole entry): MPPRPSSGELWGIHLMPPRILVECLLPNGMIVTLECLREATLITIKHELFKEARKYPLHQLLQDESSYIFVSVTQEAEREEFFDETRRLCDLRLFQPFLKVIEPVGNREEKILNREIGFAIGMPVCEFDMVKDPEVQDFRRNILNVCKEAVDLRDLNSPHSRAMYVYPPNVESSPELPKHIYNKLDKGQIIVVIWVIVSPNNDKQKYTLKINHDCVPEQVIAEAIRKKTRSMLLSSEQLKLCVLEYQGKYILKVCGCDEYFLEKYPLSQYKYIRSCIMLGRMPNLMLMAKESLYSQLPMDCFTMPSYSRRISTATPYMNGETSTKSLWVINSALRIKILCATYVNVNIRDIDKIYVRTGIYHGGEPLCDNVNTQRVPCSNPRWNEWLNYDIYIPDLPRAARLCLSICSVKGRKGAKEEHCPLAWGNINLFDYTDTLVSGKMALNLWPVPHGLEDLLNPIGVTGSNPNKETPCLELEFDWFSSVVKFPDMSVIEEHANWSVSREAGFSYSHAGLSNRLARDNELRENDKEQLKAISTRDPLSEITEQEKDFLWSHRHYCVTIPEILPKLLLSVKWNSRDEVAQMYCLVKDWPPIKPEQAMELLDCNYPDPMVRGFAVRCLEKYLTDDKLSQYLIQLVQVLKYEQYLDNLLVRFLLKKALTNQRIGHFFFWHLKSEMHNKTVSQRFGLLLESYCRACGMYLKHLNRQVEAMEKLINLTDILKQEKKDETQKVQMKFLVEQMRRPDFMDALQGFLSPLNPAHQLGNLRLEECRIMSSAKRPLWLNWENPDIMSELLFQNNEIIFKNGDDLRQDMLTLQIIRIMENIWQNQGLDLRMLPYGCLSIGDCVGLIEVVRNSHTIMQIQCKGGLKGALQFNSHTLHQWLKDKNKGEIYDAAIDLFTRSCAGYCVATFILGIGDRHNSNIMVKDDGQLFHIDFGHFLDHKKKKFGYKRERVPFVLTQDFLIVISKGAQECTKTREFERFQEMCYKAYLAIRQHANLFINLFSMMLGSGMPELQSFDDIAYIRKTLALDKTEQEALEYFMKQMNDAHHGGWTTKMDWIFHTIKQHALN
CDKL1, sequence (Q00532 whole entry): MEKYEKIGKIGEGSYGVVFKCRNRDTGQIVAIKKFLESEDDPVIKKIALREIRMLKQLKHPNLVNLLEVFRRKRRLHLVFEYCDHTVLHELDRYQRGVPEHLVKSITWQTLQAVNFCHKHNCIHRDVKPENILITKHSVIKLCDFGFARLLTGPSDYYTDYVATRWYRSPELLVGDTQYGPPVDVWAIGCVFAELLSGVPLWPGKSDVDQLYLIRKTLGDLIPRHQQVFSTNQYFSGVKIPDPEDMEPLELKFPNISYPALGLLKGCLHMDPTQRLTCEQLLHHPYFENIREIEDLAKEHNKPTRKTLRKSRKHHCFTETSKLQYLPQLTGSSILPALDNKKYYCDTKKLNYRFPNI

Work on `Cc1ccc(NC(=O)c2cccc(C(F)(F)F)c2)cc1Nc1cc(-c2cccnc2)nc2[nH]ccc12` [HZX-02-059] yielded a remaining binding at 1 µM [1] of 55%, a remaining binding at 1 µM [2] of 26% and a remaining binding at 1 µM [3] of 72%. For the same molecule, the remaining binding at 1 µM [4] was 18%, the remaining binding at 1 µM [5] was 83% and the remaining binding at 1 µM [6] was 89%. For the same molecule, the remaining binding at 1 µM [7] was 96%, the remaining binding at 1 µM [8] was 79% and the remaining binding at 1 µM [9] was 86%. It also gave a remaining binding at 1 µM [10] of 99%, a remaining binding at 1 µM [11] of 100% and a remaining binding at 1 µM [12] of 94%. It also gave a remaining binding at 1 µM [13] of 92%, a remaining binding at 1 µM [14] of 100% and a remaining binding at 1 µM [15] of 100%. The remaining binding at 1 µM [16] was 96%, the remaining binding at 1 µM [17] was 98% and the remaining binding at 1 µM [18] was 100%. For the same molecule, the remaining binding at 1 µM [19] was 99%, the remaining binding at 1 µM [20] was 100% and the remaining binding at 1 µM [21] was 99%. For the same molecule, the remaining binding at 1 µM [22] was 100%, the remaining binding at 1 µM [23] was 94% and the remaining binding at 1 µM [24] was 17%.
